The values that follow come from US20230303564A1, “PYRIMIDINE RING COMPOUND” (MEDSHINE DISCOVERY INC., priority 2020, published 2023).

Molecules are shown by their SMILES.

One data set deals with CDK6/CyclinD1 (Homo sapiens (Human), UniProt Q00534). The data set can be described thus: CDK6/CyclinD1 enzyme activity test (LANCE Ultra TR-FRET). The note with it: 250 μM ATP, 25° C. 120 minutes, read-out: CDK6/Cyclin D1 IC50. It is filed as biochemical. The procedure: CDK6/CyclinD1 Enzyme Reaction System
Sequence of CDK6/CyclinD1 (Q00534 whole entry): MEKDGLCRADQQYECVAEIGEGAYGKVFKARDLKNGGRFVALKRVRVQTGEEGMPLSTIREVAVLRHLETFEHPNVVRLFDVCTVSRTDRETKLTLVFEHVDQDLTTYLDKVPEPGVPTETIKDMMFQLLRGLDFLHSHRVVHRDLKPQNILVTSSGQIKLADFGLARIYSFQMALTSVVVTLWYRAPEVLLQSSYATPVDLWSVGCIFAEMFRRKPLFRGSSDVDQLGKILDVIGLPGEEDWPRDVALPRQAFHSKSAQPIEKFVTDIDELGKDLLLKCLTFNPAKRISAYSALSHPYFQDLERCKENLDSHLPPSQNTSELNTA
Sequence of CDK6/CyclinD1 (P24385 whole entry partner): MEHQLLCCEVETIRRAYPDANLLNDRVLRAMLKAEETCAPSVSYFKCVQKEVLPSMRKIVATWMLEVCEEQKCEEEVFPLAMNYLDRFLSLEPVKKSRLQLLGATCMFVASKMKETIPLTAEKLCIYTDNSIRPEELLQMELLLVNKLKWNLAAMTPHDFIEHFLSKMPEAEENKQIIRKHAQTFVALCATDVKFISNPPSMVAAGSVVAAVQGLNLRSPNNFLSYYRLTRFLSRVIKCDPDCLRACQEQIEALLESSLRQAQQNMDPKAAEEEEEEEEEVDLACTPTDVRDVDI
(§1) Preparation of Kinase Buffer:
(§2) The composition of the buffer: 50 mM of hydroxyethylpiperazine ethanesulfonic acid solution at pH 7.5, 1 mM of ethylenediaminetetraacetic acid, 10 mM of magnesium chloride, 0.01% Brij-35, and 2 mM of dithiothreitol.
(§3) Enzymes, substrate LANCE Ultra ULight™-4E-BP-1(Thr37146) Peptide, ATP, and inhibitors were diluted by kinase buffer.
(§4) The compounds to be tested were diluted 5-fold with a multi-channel pipette to the eighth concentration, that is, from 40 μM to 0.512 nM, the concentration of DMSO was 4%, and a double-hole experiment was set up. […] The reaction system was reacted at 25° C. for 120 minutes. After the reaction, 5 μL mixture of EDTA and 2× LANCE™ Detection Buffer (1:1) were added to each well, the reaction was carried out at 25° C. for 5 minutes, after the reaction was completed, 5 μL of LANCE Ultra Eu-anti-P-4E-BP1(Thr37MS) (4 nM) was added to each well, the reaction was carried out at 25° C. for 60 minutes, the reaction signal was detected by Nivo instrument according to the principle of time-resolved fluorescence resonance energy transfer.
(§5) The equation (Sample−Min)/(Max−Min)*100% was used to convert the raw data into inhibition rate, and the value of IC50 can be obtained by curve fitting with four parameters (obtained by log (inhibitor) vs. response-Variable slope mode in GraphPad Prism). The enzymatic inhibitory activity of the compounds of the present disclosure on CDK1/CyclinB1, CDK2/CyclinA2, CDK2/CyclinE1, CDK4/CyclinD1, CDK6/CyclinD1, CDK7/CyclinH/MAT1, CDK9/CyclinT1 was provided in Table 1.
(TR-FRET usually uses a lanthanide donor and a delayed reading to cut background.)

Another data set concerns the target CDK9/CyclinT1 (Homo sapiens (Human), UniProt P50750). The data set can be described thus: CDK9/CyclinT1 enzyme activity test (ADP-Glo). It is filed as biochemical. Particulars: 100 μM ATP, 25° C. 120 minutes, read-out: CDK 9/Cyclin T1 IC50. The procedure: CDK9/CyclinT1 Enzyme Reaction System
(§6) Enzymes, substrates, ATP, and inhibitors were diluted by kinase buffer in the kit. The compounds to be tested were diluted 5-fold with a multi-channel pipette to the eighth concentration, that is, from 50 μM to 0.65 nM, the concentration of DMSO was 5%, and a double-hole experiment was set up. 1 μL of each concentration gradient of inhibitors, 2 μL of CDK9/CyclinT1 enzyme (4 ng), 2 μL mixture of substrate and ATP (100 μM ATP, 0.2 μg/μL substrate) were added to the microplates, and the final concentration gradient of the compound was 10 μM to 0.13 nM. The reaction system was reacted at 25° C. for 120 minutes. After the reaction, 5 μL of ADP-Glo reagent was added to each well, the reaction was carried out at 25° C. for 40 minutes, after the reaction was completed, 10 μL of kinase detection reagent was added to each well, the reaction was carried out at 25° C. for 30 minutes, the multiple label analyzer was used to read the chemiluminescence with an integration time of 0.5 seconds.
as §5

Another data set addresses CDK1/CyclinB1 (Homo sapiens (Human), UniProt P06493). The data set can be described thus: CDK1/CyclinB1 enzyme activity test (ADP-Glo). It is filed as biochemical. Particulars: 25 μM ATP, 25° C. 120 minutes, read-out: CDK1/Cyclin B IC50. The procedure:
CDK1/CyclinB1 Enzyme Reaction System
as §6, with “of CDK1/CyclinB1” for “of CDK9/CyclinT1”, “enzyme (12.5” for “enzyme (4”, “ATP (25” for “ATP (100”, “μM adenosine triphosphate,” for “μM ATP,”
as §5
On the technique in general: ADP-Glo first removes unused ATP, then detects ADP through luciferase.

The target of a further data set is CDK2/CyclinA2 (Homo sapiens (Human), UniProt P24941). The data set can be described thus: CDK2/CyclinA2 enzyme activity test (ADP-Glo). The class given is biochemical. The note with it: 50 μM ATP, 25° C. 60 minutes, read-out: CDK2/Cyclin A2 IC50. The procedure:
CDK2/CyclinA2 Enzyme Reaction System
as §6, with “CDK2/CyclinA2” for “CDK9/CyclinT1”, “(1.6” for “(4”, “(50” for “(100”, “0.1” for “0.2”, “60” for “120”, “seconds” for “seconds.”
as §5

A further data set has as its target CDK7/CyclinH/MAT1 (Homo sapiens (Human), UniProt P50613). The data set can be described thus: CDK7/CyclinH/MAT1 enzyme activity test (ADP-Glo). It is filed as biochemical. The note with it: 10 μM ATP, 25° C. 120 minutes, read-out: CDK7/Cyclin H IC50.
Another data set deals with CDK4/CyclinD1 (Homo sapiens (Human), UniProt P11802). Put plainly: CDK4/CyclinD1 enzyme activity test (LANCE Ultra TR-FRET). The class given is biochemical. Particulars: 350 μM ATP, 25° C. 120 minutes, read-out: CDK4/Cyclin D1 IC50. The procedure:
CDK4/CyclinD1 Enzyme Reaction System
as §1, §2, §3, §4, §5

Another data set addresses CDK2/CyclinE1 (Homo sapiens (Human), UniProt P24941). Put plainly: CDK2/CyclinE1 enzyme activity test (ADP-Glo). Particulars: 150 μM ATP, 25° C. 60 minutes, read-out: CDK2/Cyclin E1 IC50. The class given is biochemical. The procedure: CDK2/CyclinE1 Enzyme Reaction System
as §6, with “CDK2/CyclinE1” for “CDK9/CyclinT1”, “(2” for “(4”, “(150” for “(100”, “0.1” for “0.2”, “60” for “120”
as §5

Data set [1] concerns human ovarian cancer OVCAR-3 cells subcutaneous xenograft tumor. Put plainly: In vivo efficacy study, OVCAR-3 subcutaneous xenograft tumor BALB/c nude mouse model. The procedure: In vivo efficacy study of human ovarian cancer OVCAR-3 cells subcutaneous xenograft tumor BALB/c nude mouse model
Cell culture: Human ovarian cancer OVCAR-3 cells were monolayer cultured in vitro, the culture conditions were 10% fetal bovine serum, 100 U/mL Penicillin and 100 μg/mL Streptomycin were added in RPMI 1640 medium, cultured at 37° C. 5% CO2 incubator. Conventional digestion with trypsin-EDTA was performed for passage. When the cell saturation was 80%/90% and the number reached the required level, the cells were collected, counted, and inoculated.
Animals: BALB/c nude mice, female, 6-8 weeks old, weighed 18-22 grams. A total of 95 (42+ additional 53) animals were needed, provided by the Experimental Animal Management Department of Shanghai Institute of Family Planning Sciences (formerly Shanghai Sipulbichem).
Tumor inoculation: 0.2 mL (1×10^7) OVCAR-3 cells (with matrix glue, volume ratio of 1:1) were subcutaneously inoculated on the right back of each mouse, and the mice were grouped administrated when the average tumor volume reached about 150 mm^3.
Dosage and frequency of administration: Day 0 to Day 7, 10 mg/kg; Day 7 to Day 14, 10 mg/kg; Day 14 to Day 21, 30 mg/kg;
Experimental index: The experimental index was used to examine whether tumor growth was inhibited, delayed or cured. Tumor diameters were measured with vernier calipers twice a week. The calculation formula of tumor volume was: V=0.5a×b^2, wherein a and b represented the long and short diameters of the tumor, respectively.

Data set [2] can be described thus: Pharmacokinetic evaluation in CD-1 (ICR) mice, oral. The class given is in vivo, mouse. The note with it: male CD-1 (ICR) mice, oral 5 mg/kg, plasma. The procedure: Experimental Scheme of Compounds 18, 19 and 20
The healthy adult male CD-1 (ICR) mice used in this study were purchased from Pinghu Weitong Lihua Experimental Animal Technology Co., Ltd.
0.300 mL of the stock solution was measured and vortexed for 2 minutes to obtain a homogeneous suspension at a concentration of 1 mg/mL, and the administration vehicle was 1% HPMC in water.
Two male CD-1 (ICR) mice were given 5 mg/kg of the compound to be tested by intragastric administration.
The blood of two animals was collected at each time point by serial blood collection. 30 μL of whole blood was collected respectively at 0.25, 0.5, 1, 2, 4, 8, and 24 hours after administration. The whole blood was placed in an anticoagulant tube, centrifuged at 3200 g for 10 minutes at 4° C., plasma was prepared and stored at −60° C. or lower. The drug concentration in plasma was determined by LC/MS-MS.

A further data set relates to OVCAR-3 cells. Put plainly: Cell activity test, anti-proliferation (CellTiter Glo), OVCAR-3. The class given is cell-based, human. The note with it: OVCAR-3, 7 days of culture. The procedure:
2) Day 1: Laying Cell Plates
(6) 0.7 mL of cell suspension was pipetted into the counting cup, the cells were counted on ViCell XR, and the cell suspension was diluted separately with culture medium to the required cell concentration for laying cell plates: 1000/30 ul.
(7) Microplates (2 plates) were required, 100 uL of phosphate buffered saline was added to the peripheral wells of the 384-well plate, 30 uL of cell suspension was added to the other wells, and the cell plate was placed into incubator for culture.
(1) Compound preparation: the stock solution of the compound to be tested was 10 mM.
(2) The compound to be tested was diluted 3 times with DMSO for 10 gradients.
(2) The compound to be tested was diluted with culture medium, and the highest final concentration was 10 μM.
(4) 10 μL of the compound was pipetted into the 384-well plate, and then the cell plate was placed back into the incubator for culture.
4) Adding CTG and Reading the Plate
(1) After 7 days of culture, 50 ul CellTiter Glo was added to the cell plate, shaken for 10 minutes in the dark, and left at room temperature for 5 minutes.
(2) The plate was read on Envision with the program: US LUM 384 (CPS). The experiment was originally stored in the personal disk:
1. The mean and standard deviation of 0% inhibition (DMSO row, ZPE) and 100% inhibition (PBS row, HPE) were calculated;
2. Inhibition rate (%)=(1−(sample value-average value of 100% inhibition)/(average value of 0% inhibition-average value of 100% inhibition))*100;
3. The curve was fitted by GraphPad 8.0 software;

Sequence of CDK4/CyclinD1 (P11802 whole entry): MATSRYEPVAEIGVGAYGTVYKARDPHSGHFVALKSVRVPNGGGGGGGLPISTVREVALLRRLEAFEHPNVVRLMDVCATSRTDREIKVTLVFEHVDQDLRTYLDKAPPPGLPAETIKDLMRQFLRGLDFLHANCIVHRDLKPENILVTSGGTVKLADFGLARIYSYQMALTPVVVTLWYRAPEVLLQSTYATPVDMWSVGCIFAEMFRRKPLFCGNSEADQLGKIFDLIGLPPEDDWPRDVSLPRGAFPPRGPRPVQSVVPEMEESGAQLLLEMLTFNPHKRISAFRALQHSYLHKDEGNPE
Sequence of CDK4/CyclinD1 (P24385 whole entry partner): as the sequence (P24385 whole entry partner) above
Sequence of CDK7/CyclinH/MAT1 (P50613 whole entry): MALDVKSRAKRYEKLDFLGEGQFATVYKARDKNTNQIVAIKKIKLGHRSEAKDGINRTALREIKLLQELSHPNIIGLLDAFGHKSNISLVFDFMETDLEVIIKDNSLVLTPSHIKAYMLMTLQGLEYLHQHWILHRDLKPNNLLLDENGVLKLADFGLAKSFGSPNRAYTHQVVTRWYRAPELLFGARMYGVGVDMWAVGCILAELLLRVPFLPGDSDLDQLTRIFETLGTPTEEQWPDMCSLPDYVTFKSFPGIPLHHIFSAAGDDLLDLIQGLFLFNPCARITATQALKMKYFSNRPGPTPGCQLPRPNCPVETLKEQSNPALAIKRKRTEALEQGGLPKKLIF
Sequence of CDK7/CyclinH/MAT1 (P51946 whole entry partner): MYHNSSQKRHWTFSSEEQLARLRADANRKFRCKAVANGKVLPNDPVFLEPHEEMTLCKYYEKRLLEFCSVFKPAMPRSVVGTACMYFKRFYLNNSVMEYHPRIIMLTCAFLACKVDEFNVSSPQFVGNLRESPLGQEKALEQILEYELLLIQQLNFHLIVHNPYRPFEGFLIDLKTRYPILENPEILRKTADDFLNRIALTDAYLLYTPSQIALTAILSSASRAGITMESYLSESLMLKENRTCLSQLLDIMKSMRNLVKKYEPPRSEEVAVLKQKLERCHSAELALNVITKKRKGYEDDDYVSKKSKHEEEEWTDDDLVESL
Sequence of CDK7/CyclinH/MAT1 (P51948 whole entry partner): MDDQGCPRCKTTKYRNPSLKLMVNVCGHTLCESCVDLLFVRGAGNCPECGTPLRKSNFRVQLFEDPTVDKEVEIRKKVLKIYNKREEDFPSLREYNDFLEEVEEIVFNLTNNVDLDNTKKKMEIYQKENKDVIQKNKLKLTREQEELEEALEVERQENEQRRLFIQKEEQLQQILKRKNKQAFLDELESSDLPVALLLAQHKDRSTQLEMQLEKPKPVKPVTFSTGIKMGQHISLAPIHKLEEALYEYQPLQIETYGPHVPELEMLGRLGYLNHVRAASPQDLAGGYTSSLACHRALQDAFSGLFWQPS
Sequence of CDK9/CyclinT1 (P50750 whole entry): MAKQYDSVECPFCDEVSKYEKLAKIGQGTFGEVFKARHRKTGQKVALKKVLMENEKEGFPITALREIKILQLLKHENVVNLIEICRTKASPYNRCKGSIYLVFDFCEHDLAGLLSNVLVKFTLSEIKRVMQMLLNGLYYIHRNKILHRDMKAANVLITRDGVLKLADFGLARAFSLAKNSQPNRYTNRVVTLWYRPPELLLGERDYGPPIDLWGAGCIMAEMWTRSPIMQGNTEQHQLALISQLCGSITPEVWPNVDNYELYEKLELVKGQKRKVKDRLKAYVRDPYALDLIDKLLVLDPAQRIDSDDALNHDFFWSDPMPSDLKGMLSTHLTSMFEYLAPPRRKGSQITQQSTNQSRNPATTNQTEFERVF
Sequence of CDK9/CyclinT1 (O60563 whole entry partner): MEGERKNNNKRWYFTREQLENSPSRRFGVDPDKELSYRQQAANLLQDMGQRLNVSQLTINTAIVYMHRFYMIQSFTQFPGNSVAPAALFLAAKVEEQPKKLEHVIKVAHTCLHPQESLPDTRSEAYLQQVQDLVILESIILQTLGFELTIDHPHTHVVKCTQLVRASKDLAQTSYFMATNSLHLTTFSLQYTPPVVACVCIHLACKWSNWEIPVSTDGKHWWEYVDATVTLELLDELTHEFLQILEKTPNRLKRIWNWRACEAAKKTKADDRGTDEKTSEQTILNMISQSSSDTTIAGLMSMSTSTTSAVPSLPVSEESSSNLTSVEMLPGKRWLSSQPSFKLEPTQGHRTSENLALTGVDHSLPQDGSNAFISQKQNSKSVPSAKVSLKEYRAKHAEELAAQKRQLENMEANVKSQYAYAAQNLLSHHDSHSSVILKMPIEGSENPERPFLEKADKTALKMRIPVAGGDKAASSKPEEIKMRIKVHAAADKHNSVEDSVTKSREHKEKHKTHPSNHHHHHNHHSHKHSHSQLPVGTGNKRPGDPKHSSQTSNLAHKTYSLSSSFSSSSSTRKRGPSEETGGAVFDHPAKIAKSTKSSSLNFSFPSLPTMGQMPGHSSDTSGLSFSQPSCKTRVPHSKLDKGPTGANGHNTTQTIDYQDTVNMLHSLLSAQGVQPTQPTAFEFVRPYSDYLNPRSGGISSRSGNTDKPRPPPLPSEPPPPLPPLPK
Sequence of CDK1/CyclinB1 (P06493 whole entry): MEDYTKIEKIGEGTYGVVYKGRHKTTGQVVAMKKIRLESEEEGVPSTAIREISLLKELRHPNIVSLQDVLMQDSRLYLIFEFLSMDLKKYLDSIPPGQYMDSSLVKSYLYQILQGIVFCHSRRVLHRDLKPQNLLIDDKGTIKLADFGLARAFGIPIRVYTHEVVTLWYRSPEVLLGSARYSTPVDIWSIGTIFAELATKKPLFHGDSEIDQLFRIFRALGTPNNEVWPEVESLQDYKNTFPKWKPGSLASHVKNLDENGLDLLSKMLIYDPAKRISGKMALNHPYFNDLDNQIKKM
Sequence of CDK1/CyclinB1 (P14635 whole entry partner): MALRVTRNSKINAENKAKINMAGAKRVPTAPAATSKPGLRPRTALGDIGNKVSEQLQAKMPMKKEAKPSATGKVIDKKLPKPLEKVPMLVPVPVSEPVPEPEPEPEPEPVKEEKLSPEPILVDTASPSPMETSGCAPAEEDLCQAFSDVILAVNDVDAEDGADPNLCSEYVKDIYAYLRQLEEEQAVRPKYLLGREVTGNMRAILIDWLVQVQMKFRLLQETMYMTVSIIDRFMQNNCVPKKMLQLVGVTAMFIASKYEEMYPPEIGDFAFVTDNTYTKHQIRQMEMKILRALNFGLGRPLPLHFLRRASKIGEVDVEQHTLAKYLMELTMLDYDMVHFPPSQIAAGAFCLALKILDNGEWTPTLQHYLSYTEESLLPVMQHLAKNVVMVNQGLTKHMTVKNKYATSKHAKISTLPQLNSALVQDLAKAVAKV
Procedure for CDK7/CyclinH/MAT1: CDK7/CyclinH/MAT1 Enzyme Reaction System
Enzymes, substrates (MBP), ATP, and inhibitors were diluted by kinase buffer in the kit. The compounds to be tested were diluted 5-fold with a multi-channel pipette to the eighth concentration, that is, from 50 μM to 0.65 nM, the concentration of DMSO was 5%, and a double-hole experiment was set up. 1 μL of each concentration gradient of inhibitors, 2 μL of CDK7/CyclinH/MAT1 enzyme (20 ng), 2 μL mixture of substrate and ATP (10 μM ATP, 0.1 μg/μL substrate) were added to the microplates, and the final concentration gradient of the compound was 10 μM to 0.13 nM. The reaction system was reacted at 25° C. for 120 minutes. After the reaction, 5 μL of ADP-Glo reagent was added to each well, the reaction was carried out at 25° C. for 40 minutes, after the reaction was completed, 10 μL of kinase detection reagent was added to each well, the reaction was carried out at 25° C. for 30 minutes, the multiple label analyzer was used to read the chemiluminescence with an integration time of 0.5 seconds.

For the molecule `Cc1cc2cnc(NC3CCN(S(C)(=O)=O)CC3)nc2c(N[C@@H]2CCC[C@@]2(C)O)n1` [Compound 8], the IC50 at CDK6/CyclinD1 is 0.81 nM; at CDK9/CyclinT1 it was 89 nM; at CDK1/CyclinB1, 6.77 nM; on CDK2/CyclinA2, 0.73 nM; on CDK7/CyclinH/MAT1 it was 41 nM; at CDK4/CyclinD1, 1.23 nM. Further, the IC50 on CDK2/CyclinE1 is 3.92 nM.

With `CC(Nc1nc(C(F)F)cc2cnc(NC3CCN(S(C)(=O)=O)CC3)nc12)C(F)(F)F` (stereo not shown) [Compound 18], the IC50 on CDK6/CyclinD1 worked out at 1.32 nM; with OVCAR-3 cells it was 17 nM; on CDK4/CyclinD1 it was 1.56 nM; at CDK2/CyclinE1, 4.72 nM. The “Tumor volume (Day 0)” value in data set [1] (Day 0 (at grouping), OVCAR-3 xenograft, BALB/c nude mice) was found to be 151 mm^3. Further, the “Tumor volume (Day 7)” value in data set [1] (Day 7, 10 mg/kg from day 0 to day 7) came out at 233 mm^3. Besides, the “Tumor volume (Day 14)” value in data set [1] (Day 14, 10 mg/kg from day 0 to day 14) stood at 393 mm^3. Further, the “Tumor volume (Day 21)” value in [1] (Day 21, 10 mg/kg day 0 to day 14, 30 mg/kg from day 14 to day 21) is reported as 529 mm^3. For the same molecule, the “Oral exposure AUC0-t” value in [2] is 2.365 µM·h.
